In general, melting point refers to the temperature, or range, at which the solid turns liquid. Take `CCOC(=O)CN1C(=O)COc2cc(N)ccc21`: the melting point was in the range of 136 to 137 °C.
For `CC(C)C(C)CCC(C)C1CCC2C3CCC4CCCCC4(C)C3CCC12C` (configuration not stated) the value was 136 to 137 °C; for `Clc1ccc(C2=NCCc3c2ccc2ccccc32)cc1`, 138 to 140 °C; for `C1=C(c2nc(COc3ccc(CCCn4ccnc4)cc3)co2)CCc2ccccc21`, 99 to 100 °C.
Then `CCCCNC(=S)Nc1nc2ccc(OC(F)(F)F)cc2s1`, with 211 °C; and `COc1cc(NC(=O)Nc2ccc3c(c2)CCN(C(=O)Nc2ccc(OCC(O)CO)cc2Cl)C3)cc(OC)c1` (configuration not stated), with 108 to 110 °C; and `O=C(N[C@@H](Cc1ccccc1)C(=O)Oc1ccc([N+](=O)[O-])cc1)OCc1ccccc1`, with 124 to 126 °C.
For `C=C(c1cc(C(C)(C)C)cc2c1CCC2(C)C)c1sccc1C(=O)O` the value was 148 to 150 °C; for `C[C@H](C(O)C(c1ccc(F)cc1F)n1cncn1)S(=O)(=O)[C@@H]1CNCCN1c1ccccc1` (some centres not stated), 135 to 137 °C.
`N#CCc1ccc(F)cc1C(=O)O` came in with a melting point of 140 °C.
Then `C#CCN(C(=O)OC)C1CN(C(=O)Nc2ccc(OC(F)(F)F)cc2)N=C1c1ccc(Cl)cc1` (configuration not stated), with 184 to 185 °C.
Then `CN1C[C@@H](C(=O)OC(C)(C)C)NC1=O`, with 135 to 136 °C.
Then `O=[N+]([O-])c1cc(-c2ccc(Cl)cc2)[nH]c1SC(F)(F)F`, with 185 to 193 °C; and `O=C(Nc1cc(Cl)ccc1-c1nnn[nH]1)c1cnn(-c2ccc(Cl)cc2)c1C(F)(F)F`, with 176 to 180 °C.
Molecule `Cc1cccc(Nc2ccccc2C=O)c1C` registered a melting point of 45 to 47 °C.
`O=C(O)c1ccc(OCCCN(CCO)c2ccc(Cl)cc2)cc1` displayed a melting point of 120 to 122 °C.
Then `CNC(=S)N1CC(Oc2cccc(C(F)(F)F)c2)C1`, with 79 to 86 °C; and `Cc1ccccc1C(CCC(=O)O)Oc1cc(OCc2ccsc2)ccc1C(=O)C(=O)O` (racemic), with 173 to 175 °C; and `Cc1cc(C)c(C)c(COc2ccc(-c3ccoc3C(=O)NNC(=O)c3ccc(O)c(C#N)c3)cc2)c1C`, with 183 to 186 °C.
For `COC(=O)c1ccc(Cc2cc3cc(Cl)ccc3n2S(C)(=O)=O)cc1` the value was 143 °C; for `CC(Cl)(Cl)C(NC(=O)c1cccc(Cl)c1)NC(=NC#N)Nc1ccc(Cl)nc1` (configuration not stated), 138 to 140 °C.
For `CCOC(=O)NN=C(C)C1(N)C(O)CC2C3CC=C4CC(OC(C)=O)CCC4(C)C3CCC21C` (configuration not stated) the value was 287 to 289 °C; for `COC(=O)c1ccc(COc2cc(C(C)(C)C)nn2Cc2ccc(C(=O)OC)cc2)cc1`, 93 to 94 °C.
Molecule `O=C(Oc1ccc2cc(CN3CCCC3)ccc2c1)N1CCC(c2ccc(F)cc2)CC1` had a melting point of 106 to 108 °C.
Then `OCc1cc(C(F)(F)F)ccc1I`, with 81 to 82 °C; and `CN1C(=O)C(NC(=O)Nc2ccc(Cl)c(Cl)c2)N=C(c2ccccc2)c2ccccc21` (configuration not stated), with 274 to 276 °C; and `COC1=C(OC)C(=O)C2=C(CCC(CCOc3ccc(F)cc3)CC2)C1=O`, with 91 to 93 °C.
For `CC(=O)C(=Cc1cc([N+](=O)[O-])c(O)c([N+](=O)[O-])c1)C(C)=O` the value was 158 °C; for `O=C(O)CC(CC(=O)O)c1ccc2oc3c(c2c1)CCCC3`, 165 to 170 °C.
For `NNCC1(O)c2ccccc2C=Cc2ccccc21` the value was 128 to 131 °C.
`COc1ccc(-c2ccc(-n3nnnc3C(F)(F)F)cc2)cc1C=O` yielded a melting point of 186 to 187 °C.
`CCCCc1nc2c(N)nc(C)c(C)c2n1CCCCNC(=O)Nc1ccccc1`: the melting point was in the range of 196 to 197 °C.
Then `COc1ccccc1C(=O)Nc1ccc(N2CCOCC2)cc1C(C)=O`, with 158 to 160 °C; and `CCO/N=C(/C(=O)OCC)c1ccc(OCCOc2ccc3ccccc3c2)s1`, with 102 to 104 °C.
For `CC(=O)C(C(N)=O)=C(C)[N+](=O)[O-]` the value was 159 to 161 °C; for `CCN1CCc2ccc(OC)c(Nc3ncc(Cl)c(Nc4ccccc4S(=O)(=O)NC)n3)c2CC1`, 171 to 188 °C; for `O=C(C=Cc1ccc(Br)s1)Nc1nnn[nH]1`, 268 °C.
Then `CC(=O)Nc1cccn(CC(=O)NC(C(=O)C(F)(F)F)C(C)C)c1=O` (configuration not stated), with 76 to 80 °C; and `O=C(NC1CCN(CCCCl)CC1)c1ccccc1`, with 145 to 147 °C.
In the case of `CCOC(=O)C(=Cc1cccc(O)c1)C(=O)OCC`, the melting point lay within 72 to 74 °C.
Then `CSCCCn1c(C)c(C(=O)c2cccc(Cl)c2Cl)c2cccc(Cl)c21`, with 87 °C.
For `COc1cc(C(=O)O)ccc1-c1nc2cc3c(cc2[nH]1)NC(=O)C3(C)C` the value was 315 to 319 °C; for `CCOC(=O)C1=C(C)NC(NC(C)=O)=C(C(=O)OCC)C1C` (configuration not stated), 105 °C; for `Cc1cn(Cc2ccccc2)c(=O)[nH]c1=O`, 170 to 173 °C.
Then `CC1(C)[C@@]2(C)CC[C@]1(NCC(=O)N1CCC[C@H]1C#N)C(=O)OC2`, with 174 to 177 °C; and `CC1=C(O)C(=O)C(C)(C(O)Cc2ccccc2)O1` (configuration not stated), with 158 to 159 °C.
`CCCCCCOc1ccc(NC(=O)N(C)c2cccc(-c3ccc(CC4SC(=O)NC4=O)cc3)c2)cc1` (configuration not stated): the melting point is 146 to 148 °C.
For `Cc1cc2c(cc1C13CC1CCC3=O)C(C)(C)CCC2(C)C` (configuration not stated) the value was 152 to 154 °C; for `Clc1ccc(-c2cc(-c3ccccc3)c(-c3ccccc3)s2)cc1Cl`, 101 to 103 °C; for `COC(=O)CCC(=C1SCCCS1)c1ccc(Oc2ccccc2)cc1`, 95 to 96 °C.
`C=CCOc1cc2c(cc1Br)CC[C@H]2CCNC(=O)CC` displayed a melting point of 86 to 87 °C.
Molecule `CC(C)(C)c1ccc(Oc2nc(-c3ccc(Cl)cc3)c(CCC(=O)O)o2)cc1` displayed a melting point of 166 to 167 °C.
For `N#Cc1c(-c2ccc(Cl)cc2)[nH]c(Cl)c1Cl` the value was 259 to 261 °C; for `COc1cc(O)c2c(c1)CCC1C2CCC2(C)C(=O)CCC12` (configuration not stated), 220 to 222 °C.
For `Cc1nc(NC(=O)Nc2ccc(F)cc2)sc1C(=O)NCc1ccccc1` the value was over 300 °C; for `O=[N+]([O-])N=C1N(Cc2ccc(Cl)nc2)CCN1[N+](=O)[O-]`, 158 °C; for `Clc1cccc(Nc2ncnc3[nH]nc(NCc4ccccc4)c23)c1`, 214 to 217 °C.
Then `CCC(=O)c1c(CC)n(Cc2ccccc2Cl)c2cc(-c3nnn[nH]3)ccc12`, with 178 to 181 °C; and `Cc1ccc(-n2nc(O)c3[nH]c4cc(Cl)ccc4c(=O)c3c2=O)cc1`, with 368 to 370 °C; and `CNC(=O)c1ccc(C=CC(=O)O)cc1`, with 273 °C.
Regarding `N#Cc1ccc2[nH]cc(CCCCN3CCN(c4ccc5oc(C(=O)NO)cc5c4)CC3)c2c1`, the melting point lay in the range of 198 to 199 °C.
Then `CCOCc1c2c(n(Cc3ccccc3)c1-c1ccccc1)C(C)CN(Cc1ccccc1)C2` (configuration not stated), with 96 to 98 °C; and `CCCCCCCCCCCCN(CCCCCCCCCCCC)C(=O)c1c(C)cc(C)c(C)c1O`, with 56 °C; and `COc1ccc(CC(C#N)C(=O)O)cc1` (configuration not stated), with 94 to 95 °C.
For `Cc1c(Cc2ccccc2)c(=O)oc2cc(OC(C)c3nnn[nH]3)cc(OC(C)c3nnn[nH]3)c12` (configuration not stated) the value was 91 to 104 °C; for `COc1cc(Nc2nccc(Nc3ccc(CCO)cc3)n2)cc(OC)c1OC`, 172 °C; for `CC(C)c1n[nH]c(Cl)c1C=NC(C#N)=C(N)C#N`, 145 to 150 °C.
For `Cc1cc(Sc2ccc3nc(COc4ccc(CC5SC(=O)NC5=O)cc4)n(C)c3n2)cc(C)c1NC(=O)Nc1ccc(C(F)(F)F)cc1` (configuration not stated) the value was 193 to 195 °C.
For `COc1cc(-n2c(OC)nc(C(F)(F)C(F)(F)F)cc2=O)c(F)cc1Cl`, the melting point is 123 to 125 °C.
Then `COc1ccc(C=O)cc1CCl`, with 55 to 57 °C.
Regarding `CCc1c(C)c(=O)n(-c2cc(OC(C)C)c(Cl)cc2F)c(=O)n1C`, the melting point was 88 to 91 °C.
On to `Cn1nc(Oc2ccc([N+](=O)[O-])c([N+](=O)[O-])c2)c(Br)c1C(F)(F)F`, for which the melting point was in the range of 152 to 153 °C.
Then `CCN(Cc1cc(Br)ccc1NCc1ccccc1)c1ccc(C(N)=O)nn1`, with 160 to 162 °C; and `CCCNC(=Nc1ccc(Cl)cc1)Nc1ncccc1OCc1c(F)cccc1F`, with 99 to 100 °C; and `CC(=O)COc1c(-c2ccc(S(C)(=O)=O)cc2)cnn(-c2ccc(F)c(F)c2)c1=O`, with 169 to 170 °C.
`CCN1c2ncccc2C(=O)N(C)c2ccc(-c3c[nH]c(C(N)=O)c3)nc21` gave a melting point of 284 to 285 °C.
Regarding `O=C(N[C@@H](Cc1ccccc1)C(=O)N1CCS(=O)CC1)c1cc2cc(Cl)ccc2[nH]1`, the melting point lay in the range of 230 to 234 °C.
For `Nc1ccc2oc3c(c2c1)CCCCCC3` the value was 97 to 98 °C; for `O=C(NC1CCC(CCN2CCN(c3nccc4c3OCC4)CC2)CC1)C(O)C(F)(F)F` (racemic), 185 °C; for `NC(=O)N1C(=O)C(=C(OCOC(=O)COCC(=O)OCc2ccccc2)c2cccs2)c2cc(F)c(Cl)cc21`, 122 °C.
`c1ccc(NN2Cc3ccccc3C2)nc1` displayed a melting point of 130 to 131 °C.
Regarding `COc1ccc(CSc2ccc([N+](=O)[O-])cc2CO)cc1`, the melting point lay in the range of 101 to 102 °C.
For `O=C(Cc1c(-c2ccccc2)c2cc(CN3CCNCC3)c(Cl)cc2oc1=O)Nc1ccc(Cl)cc1C(F)(F)F` the value was 237 to 242 °C; for `CCn1c(=O)c2[nH]c(/C=C/c3ccc4c(c3)OCO4)nc2n(CC)c1=O`, over 275 °C; for `O=C(c1ccc(-n2ccc(C(F)(F)F)n2)cc1C(F)(F)F)N1Cc2cccnc2Nc2ccccc21`, 127 to 129 °C.
Then `O=C(O)c1cccc(N2CCc3ccccc32)c1`, with 168 to 170 °C; and `CCOC(=O)c1[nH]c2cc3[nH]c(C)c(C(=O)OC)c3c(C)c2c1C`, with 247 to 250 °C.

For the origin of these results see a melting point compilation (Tetko et al.; mined from patent text by program, amines drawn as free bases though some values may be those of a salt).
